Source: patent US8344008B2 (Janssen Pharmaceutica NV, priority 2007, dated 2013)
Where a name gives a salt, the structure may show the parent alone.

Target: T1, recombinant human LTA4 hydrolase (rhLTA4H) (Homo sapiens, UniProt P09960)
T1 construct: made in house; host or cells: Spodoptera frugiperda (Sf-9) cells, baculovirus (pFastBac1)
T1 sequence (P09960 1-611): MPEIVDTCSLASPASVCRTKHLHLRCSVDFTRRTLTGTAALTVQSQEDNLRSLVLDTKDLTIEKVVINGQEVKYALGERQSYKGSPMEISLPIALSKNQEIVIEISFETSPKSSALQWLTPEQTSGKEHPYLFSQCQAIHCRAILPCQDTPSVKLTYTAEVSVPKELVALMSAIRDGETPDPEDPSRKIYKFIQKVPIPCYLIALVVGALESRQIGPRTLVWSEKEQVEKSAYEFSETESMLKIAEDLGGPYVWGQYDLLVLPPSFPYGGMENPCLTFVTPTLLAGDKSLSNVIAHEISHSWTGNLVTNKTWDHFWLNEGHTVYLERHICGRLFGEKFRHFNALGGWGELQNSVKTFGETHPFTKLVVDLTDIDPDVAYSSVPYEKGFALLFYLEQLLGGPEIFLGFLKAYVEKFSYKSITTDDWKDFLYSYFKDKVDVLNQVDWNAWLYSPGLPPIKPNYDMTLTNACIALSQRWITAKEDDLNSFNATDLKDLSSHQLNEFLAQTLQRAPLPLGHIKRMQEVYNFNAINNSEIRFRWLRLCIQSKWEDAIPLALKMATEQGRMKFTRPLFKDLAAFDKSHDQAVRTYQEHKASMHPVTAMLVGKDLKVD
Assay: Recombinant Human LTA4 Hydrolase Assay for LTA4 Hydrolase Inhibitor Activity
Type: biochemical
Conditions: average of results obtained; LTB4 quantified by enzyme-linked immunoassay
How it was run: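 LTB4 formation, quantified by EIA after 10 min at rt, was the read-out once 9 ng LTA4 (free acid) was added to recombinant human enzyme (36 ng, Sf-9 expressed) that had sat 10 min with compound. Buffer: 0.1 M potassium phosphate pH 7.4 with fatty-acid-free BSA; IC50 by 4-parameter fit.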

SMILES | Ki [nM]
c1cc(CN2C[C@@H]3C[C@H]2CN3)cc(Oc2nc3ccccc3s2)c1 [Example 69, (S,S)-2-[3-(2,5-Diaza-bicyclo[2.2.1]hept-2-ylmethyl)-phenoxy]-benzothiazole hydrochloride] | 450
CC(=O)N1C[C@@H]2C[C@H]1CN2Cc1cccc(Oc2nc3ccccc3s2)c1 [Example 2, (S,S)-1-{5-[3-(Benzothiazol-2-yloxy)-benzyl]-2,5-diaza-bicyclo[2.2.1]hept-2-yl}-ethanone] | 508
NC(=O)N1C[C@H]2C[C@@H]1CN2CCc1ccc(Oc2nc3cc(F)ccc3s2)cc1 [Example 244, (R,R)-5-{2-[4-(5-Fluoro-benzothiazol-2-yloxy)-phenyl]-ethyl}-2,5-diaza-bicyclo[2.2.1]heptane-2-carboxylic acid amide] | 12
c1ccc2sc(Cc3ccc(CN4C[C@@H]5C[C@H]4CN5)cc3)nc2c1 [Example 4D, (S,S)-2-[4-(2,5-Diaza-bicyclo[2.2.1]hept-2-ylmethyl)-benzyl]-benzothiazole dihydrochloride] | 260
CS(=O)(=O)N1C[C@@H]2C[C@H]1CN2Cc1ccc(Cc2nc3ccccc3s2)cc1 [Example 45, (S,S)-2-[4-(5-Methanesulfonyl-2,5-diaza-bicyclo[2.2.1]hept-2-ylmethyl)-benzyl]-benzothiazole] | 190
CS(=O)(=O)N1C[C@H]2C[C@@H]1CN2Cc1ccc(Oc2nc3cccc(F)c3s2)cc1 [Example 189, (R,R)-7-Fluoro-2-[4-(5-methanesulfonyl-2,5-diaza-bicyclo[2.2.1]hept-2-ylmethyl)-phenoxy]-benzothiazole] | 375
CC(=O)N[C@@H]1C[C@H]2CC[C@@H](C1)N2Cc1ccc(Oc2nc3cc(Cl)ccc3s2)cc1 [Example 276, meso-exo-N-{8-[4-(5-Chloro-benzothiazol-2-yloxy)-benzyl]-8-aza-bicyclo[3.2.1]oct-3-yl}-acetamide] | 38
CC(=O)N1[C@@H]2CC[C@H]1C[C@H](NCc1ccc(Oc3nc4cccc(Cl)c4s3)cc1)C2 [Example 166, meso-exo-1-{3-[4-(7-Chloro-benzothiazol-2-yloxy)-benzylamino]-8-aza-bicyclo[3.2.1]oct-8-yl}-ethanone] | 1900
CS(=O)(=O)N1[C@@H]2CC[C@H]1C[C@@H](NCCOc1ccc(Oc3nc4cc(F)ccc4s3)cc1)C2 [Example 233, meso-endo-{2-[4-(5-Fluoro-benzothiazol-2-yloxy)-phenoxy]-ethyl}-(8-methanesulfonyl-8-aza-bicyclo[3.2.1]oct-3-yl)-amine] | 225

Second part, the molecule after the results:

Ki [nM] | SMILES
10 | O=C(C1CC1)N1CC2CN(Cc3ccc(Oc4nc5ccccc5s4)cc3)CC2C1 (centres unmarked) [Example 111, {5-[4-(Benzothiazol-2-yloxy)-benzyl]-hexahydro-pyrrolo[3,4-c]pyrrol-2-yl}-cyclopropyl-methanone]
51 | O=C(C1CCOCC1)N1CC2CN(Cc3ccc(Oc4nc5ccccc5s4)cc3)CC2C1 (centres unmarked) [Example 103, {5-[4-(Benzothiazol-2-yloxy)-benzyl]-hexahydro-pyrrolo[3,4-c]pyrrol-2-yl}-(tetrahydro-pyran-4-yl)-methanone]
4 | CC(=O)N(C)[C@H]1C[C@H]2CC[C@@H](C1)N2Cc1ccc(Oc2nc3ccccc3s2)cc1 [Example 70, meso-endo-N-{8-[4-(Benzothiazol-2-yloxy)-benzyl]-8-aza-bicyclo[3.2.1]oct-3-yl}-N-methyl-acetamide]
19 | NC(=O)NC1[C@H]2CN(Cc3ccc(Oc4nc5ccccc5s4)cc3)C[C@@H]12 (stereo partly drawn) [Example 140, (R,S)-{3-[4-(Benzothiazol-2-yloxy)-benzyl]-3-aza-bicyclo[3.1.0]hex-6-yl}-urea]
631 | O=S(=O)(c1ccco1)N1CC2CN(Cc3ccc(Oc4nc5ccccc5s4)cc3)CC2C1 (centres unmarked) [Example 121, 2-{4-[5-(Furan-2-sulfonyl)-hexahydro-pyrrolo[3,4-c]pyrrol-2-ylmethyl]-phenoxy}-benzothiazole]
